# Reference: PMC4674309 (Molecular cancer therapeutics, 2015)
# Target: IGF-IR (Homo sapiens, UniProt P08069)
# Assay: Western blot of IGF-IR autophosphorylation
# Type: cell-based
# IGF-IR, sequence (P08069 31-736): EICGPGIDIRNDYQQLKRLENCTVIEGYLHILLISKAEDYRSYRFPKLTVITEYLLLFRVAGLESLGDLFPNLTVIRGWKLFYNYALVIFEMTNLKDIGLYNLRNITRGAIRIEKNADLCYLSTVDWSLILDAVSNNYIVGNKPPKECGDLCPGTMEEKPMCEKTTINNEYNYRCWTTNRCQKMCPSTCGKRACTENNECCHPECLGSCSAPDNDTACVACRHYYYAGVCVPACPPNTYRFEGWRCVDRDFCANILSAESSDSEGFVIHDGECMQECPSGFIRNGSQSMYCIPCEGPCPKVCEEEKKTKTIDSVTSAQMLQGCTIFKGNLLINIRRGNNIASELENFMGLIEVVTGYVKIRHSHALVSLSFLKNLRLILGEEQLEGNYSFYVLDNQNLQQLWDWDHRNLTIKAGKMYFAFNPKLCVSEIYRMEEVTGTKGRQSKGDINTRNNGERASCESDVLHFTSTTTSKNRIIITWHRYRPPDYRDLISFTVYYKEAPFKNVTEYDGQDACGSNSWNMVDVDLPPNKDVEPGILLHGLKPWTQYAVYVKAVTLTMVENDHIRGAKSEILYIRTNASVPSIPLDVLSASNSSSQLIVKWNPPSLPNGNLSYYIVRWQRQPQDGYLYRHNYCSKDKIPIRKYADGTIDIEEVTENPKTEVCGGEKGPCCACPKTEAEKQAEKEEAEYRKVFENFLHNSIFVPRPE
# IGF-IR, sequence (P08069 741-1367): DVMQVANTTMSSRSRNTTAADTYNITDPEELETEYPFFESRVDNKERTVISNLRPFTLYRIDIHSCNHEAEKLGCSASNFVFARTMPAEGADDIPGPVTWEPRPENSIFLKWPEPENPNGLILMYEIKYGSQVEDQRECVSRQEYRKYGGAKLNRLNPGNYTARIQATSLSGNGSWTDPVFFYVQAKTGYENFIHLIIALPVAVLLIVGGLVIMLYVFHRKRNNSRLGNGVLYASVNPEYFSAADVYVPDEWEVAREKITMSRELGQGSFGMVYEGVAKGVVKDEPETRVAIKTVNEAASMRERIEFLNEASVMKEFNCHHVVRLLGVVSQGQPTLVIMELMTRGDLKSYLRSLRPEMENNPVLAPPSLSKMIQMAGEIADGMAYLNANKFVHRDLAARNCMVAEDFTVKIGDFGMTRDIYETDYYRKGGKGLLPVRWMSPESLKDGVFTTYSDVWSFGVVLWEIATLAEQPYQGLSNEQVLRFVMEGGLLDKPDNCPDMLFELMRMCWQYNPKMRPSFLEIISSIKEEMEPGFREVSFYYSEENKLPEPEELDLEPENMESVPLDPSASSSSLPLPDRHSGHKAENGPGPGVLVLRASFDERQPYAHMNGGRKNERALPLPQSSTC
compound,measurement,value
Cc1ccsc1C(=O)Nc1cc(CN2CCN(C(=O)CO)CC2)ccc1/C=C/c1n[nH]c2ccccc12 [KW-2450],IC50,< 2 nM
